“Also recorded” adds a separate entry of the source.
Key:
[1] = Weight loss and blood glucose in female SWV mice with STZ induced diabetes, 30 days gavage; format: in vivo, mouse; details: thirty days
Experimental: Weight loss and blood glucose in diabetes induced mice treated with ellagic acid was determined and weight loss and blood glucose in mice treated with ellagic acid dihydrate may be determined by the following procedures. Induction of Diabetes: Diabetes is induced in mice by intraperitoneal injection with Streptozotocin (STZ 40 mg/kg) daily for five days. The mice are considered hyperglycemic when the glucose level of each dam is above 200 mg/dL. The mice are fasted for 4 hours before STZ injection and glucose measurement. Treatment: The mice are treated daily for thirty days with ellagic acid or control in the form of a supplemental pill homogenized and suspended in 25% water solution of Cremophor EL. The mice are treated for one month via gavage using the human equivalent dose of 122.4 mg pill/kg of subject (40.6 mg ellagic acid/kg of the subject), the human equivalent does of 40.6 mg ellagic acid/kg of the subject using 98% pure ellagic acid, or control vehicle (25% water solution of Cremophor EL). The human equivalent dose is calculated as described in Example 8. Treatments would start two weeks after the last STZ injection in which hyperglycemia is confirmed in the diabetic mice. The mice would be weighed daily and glucose levels would be measured in fasted animals every five days.

MEF cells [2] = test: Glucose uptake, 2-NBDG labeling, high-content imaging (Operetta), MEFs; format: cell-based, mouse
Experimental: (§1) Increased glucose uptake was indicated as increasing signal of 2-NBDG ([…]) in cells. Glucose uptake assays were carried out in a final incubation volume of 50 μl consisting of, 2-NBDG), (100 μM) in 1× Phosphate Buffered Saline w/Ca+, Mg+ (PBS++). The same buffer was used for washing cells. Insulin was used as a positive control. All testing compounds were prepared in 10% DMSO and diluted 1:100 for a final concentration of 0.1% DMSO (vehicle). Cells were culture to 70-90% confluence and then washed twice with PBS++. Cells were incubated for 30 minutes at 37° C. in PBS++. Nuclear stain, HCS CellMask stain (blue, Invitrogen), and/or testing compounds (ellagic acid dihydrate, insulin, or vehicle) were added. Cells were incubated for 30 min at 37° C. Cells were washed twice with PBS++ and incubated with 2-NBDG for 10 minutes. Cells were washed thrice with PBS++ and then imaged in PBS++. Alternatively, the final PBS wash was removed and cells were incubated with Accutase (Invitrogen) for 10 min at 37° C., neutralized with 10% FBS in 1×PBS, and analyzed by flow cytometry. An additional experiment was performed to measure glucose uptake in C2Cl2 cells exposed to metformin, insulin and ellagic acid dihydrate 2 (batch 2). FIG. 5C. Glucose uptake in ellagic acid dihydrate treated cell culture was measured and compared to glucose uptake under insulin or ellagic acid treatment. […] Flow cytometry results were run in triplicate with 1000 cells per batch.

Activity level in mice = format: in vivo, mouse; details: mice, Applicant's observation
Source text: Activity levels in mice treated with ellagic acid dihydrate may be quantified by several procedures, such as those outlined in Turri, M. et al.; QTL Analysis Identifies Multiple Behavioral Dimensions in Ethological Tests of Anxiety in Laboratory Mice; Current Biology; 2001; 11(10): 725-734. Two examples of procedures taught therein follows. Gross Locomotor Activity in Home Cage: Mice are caged singly several days prior to home cage activity monitoring and subsequent testing. Activity in home cages are measured during the first 2 hours of the dark cycle on two consecutive days. Two infrared photo emitter-detector pairs, located outside the clear plastic home cage that divide the cage into three equal areas, are used to record gross locomotor activity on the floor of the home cage as the animal breaks the photo beams. The beam-break activity score consists of the square root of the number of beam breaks for each detector summed across the two test days. Magnitude of Activity in Home Cage: Mice are caged singly several days prior to home cage activity monitoring and subsequent testing. Activity in home cages are measured during the first 2 hours of the dark cycle on two consecutive days. An infrared motion detector located above the top of the home cage is employed to converts all motion sensed within the home cage into arbitrary units, based on the magnitude of activity detected.

AKT = test: AKT:Phos AKT ratio by immunocytochemistry, high-content imaging in C2C12; format: cell-based, mouse; details: serum starved C2C12, 30 minutes; 4 nM-4 μM for insulin and ellagic acid dihydrate
Experimental: Stimulation of AKT pathways and MAPK pathways in ellagic acid dihydrate, metformin, and insulin treated cell cultures was performed. Insulin stimulates glucose uptake into cells by increasing GLUT4 activation, and AKT, specifically phos-AKT, signaling alters GLUT4 translocation. […] Cellular assays were performed using mouse myoblast C2C12 cells. […] Serum starved cells (1 hr) were treated for 30 minutes with each of the tested compounds.

p44/42 MAPK = test: p44/42 MAPK:Phos p44/42 MAPK ratio by immunocytochemistry, high-content imaging in C2C12; format: cell-based, mouse; details: serum starved C2C12, 30 minutes, 0.04 nM
Experimental: Stimulation of AKT pathways and MAPK pathways in ellagic acid dihydrate, metformin, and insulin treated cell cultures was performed. Insulin stimulates glucose uptake into cells by increasing GLUT4 activation, and AKT, specifically phos-AKT, signaling alters GLUT4 translocation. […] Cellular assays were performed using mouse myoblast C2C12 cells. Relative protein levels of AKT:phos AKT and p44/42 MAPK:phos p44/42 MAPK were determined.
Serum starved cells (1 hr) were treated for 30 minutes with each of the tested compounds. Ratios of phosphorylated to non-phosphorylated proteins were determined using immunocytochemistry labeling (anti-AKT, anti-Phos AKT; or anti-p44/42 MAPK, anti-Phos p44/42 MAPK) on a high-content imaging system (Operetta, Perkin Elmer) using the fluorescent signal of anti-rabbit Alexa 647. Increased phosphorylation is indicated as decrease in signal of AKT:Phos AKT ratio (log 2 scale) and p44/42 MAPK:Phos p44/42 MAPK ratio (log 2 scale) relative to vehicle treated cells.

MEF cells [3] = test: Glucose uptake, 2-NBDG labeling, flow cytometry, MEFs; format: cell-based, mouse; details: flow cytometry
Experimental: as §1, with “Cellular assays were performed using mouse myoblast C2C12 cells and MEF cells. […] Increased” for “Increased”

[4] = test system: mouse myoblast C2C12 cells; test: Glucose uptake, 2-NBDG labeling, flow cytometry, C2C12; format: cell-based
Experimental: Cellular assays were performed using mouse myoblast C2C12 cells and MEF cells. […] Increased glucose uptake was indicated as increasing signal of 2-NBDG ([…]) in cells. Glucose uptake assays were carried out in a final incubation volume of 50 μl consisting of, 2-NBDG), (100 μM) in 1× Phosphate Buffered Saline w/Ca+, Mg+ (PBS++). The same buffer was used for washing cells. Insulin was used as a positive control. All testing compounds were prepared in 10% DMSO and diluted 1:100 for a final concentration of 0.1% DMSO (vehicle). Cells were culture to 70-90% confluence and then washed twice with PBS++. Cells were incubated for 30 minutes at 37° C. in PBS++. Nuclear stain, HCS CellMask stain (blue, Invitrogen), and/or testing compounds (ellagic acid dihydrate, insulin, or vehicle) were added. Cells were incubated for 30 min at 37° C. Cells were washed twice with PBS++ and incubated with 2-NBDG for 10 minutes. Cells were washed thrice with PBS++ and then imaged in PBS++. Alternatively, the final PBS wash was removed and cells were incubated with Accutase (Invitrogen) for 10 min at 37° C., neutralized with 10% FBS in 1×PBS, and analyzed by flow cytometry. An additional experiment was performed to measure glucose uptake in C2Cl2 cells exposed to metformin, insulin and ellagic acid dihydrate 2 (batch 2). FIG. 5C.

GLUT4-GFP = test: Localization of glucose transporter GLUT4-GFP, time-lapse confocal microscopy in C2C12; format: cell-based, mouse; details: C2C12, 4000 nM exposure
Experimental: Induction of glucose transporter, GLUT-4, in ellagic acid dihydrate treated cell cultures was studied. Cellular assays were performed using mouse myoblast C2C12 cells. The cells were infected with a fusion glucose transporter 4 green fluorescent protein (GLUT4-GFP). This protein allows the visualization of GLUT4 by imaging the GFP under fluorescent time-lapse microscopy. Frames were compiled to produce time-lapse images of cellular changes with no treatment or treatment with insulin. The localization of glucose transporter (GLUT4-GFP) was performed in final incubation volume of 505 μL, consisting of 500 μl of Hank's Buffer (Invitrogen) and 5 μl of tested compounds. Insulin was used as positive controls and vehicle (0.1% DMSO) as the negative control. All test compounds were prepared in 10% DMSO and diluted 1:100 for a final concentration of 0.1% DMSO (vehicle). The cells were rinsed in Hank's Buffer thrice and then incubated in Hank's Buffer at 37° C. for one hour. The test compounds were added (ellagic acid dihydrate, insulin, or vehicle) and the cells were imaged using laser-confocal microscopy (Leica TCS SP5 X) with FITC fluorescent filters to determine changes in GLUT4-GFP localization. Time-lapse images (TIF) were collected and post-processed using Image-J (NIH) for video construction.

| Compound | mean glucose level values, treated versus control mice ([1]; STZ diabetic mice) | average loss of body weight ([1]; female SWV mice with STZ induced diabetes, human equivalent dose (40.6 mg ellagic acid/kg), gavage daily, control lost 2.2%) [%] | dose effect for increasing glucose uptake (MEF cells [2]) | activity levels (Activity level in mice) | AKT:Phos AKT ratio (log 2 scale) relative to vehicle treated cells (AKT) | p44/42 MAPK:Phos p44/42 MAPK ratio relative to vehicle (p44/42 MAPK) | increased glucose uptake (percent change relative to vehicle) (MEF cells [3]; 400 nM exposure, fibroblasts (MEFs)) [%] | dose effect for increasing glucose uptake (MEF cells [3]; MEFs, 2-NBDG) | glucose uptake (2-NBDG signal) relative to vehicle (MEF cells [3]; MEFs, vehicle 0.1% DMSO) | dose effect for increasing glucose uptake ([4]; C2C12, flow cytometry, 2-NBDG) | glucose uptake (2-NBDG signal) relative to vehicle ([4]; C2C12, flow cytometry, vehicle 0.1% DMSO) | increase in glucose uptake in myoblasts relative to fibroblasts ([4]; C2C12 myoblasts versus MEF fibroblasts) [×] | glucose uptake (2-NBDG signal) (MEF cells [2]; versus vehicle (Neg, 0.1% DMSO)) | GLUT4-GFP localization (GLUT4-GFP) | ruffling of filopodia at the surface of the cell (GLUT4-GFP) | p44/42 MAPK:Phos p44/42 MAPK ratio relative to vehicle (p44/42 MAPK; 400 nM) |
| --- | --- | --- | --- | --- | --- | --- | --- | --- | --- | --- | --- | --- | --- | --- | --- | --- |
| O=c1oc2c(O)c(O)cc3c(=O)oc4c(O)c(O)cc1c4c23 [ellagic acid] | no significant differences between the mean glucose level values | 11.7 | little to no glucose uptake per unit dose; also recorded: no such dose effect was seen | increased activity levels |  |  |  |  |  |  |  |  |  |  |  |  |
| CN(C)C(=N)N=C(N)N [metformin] |  |  |  |  | increase in AKT relative to phosphorylation of AKT | increased the ratio of p44/42 MAPK |  |  |  |  |  |  |  |  |  |  |
| insulin [reference compound] |  |  | dose effect for increasing glucose uptake |  | −0.5 |  | 32 | dose effect for increasing glucose uptake | significant increase in glucose uptake relative to the vehicle | dose effect for increasing glucose uptake | significant increase in glucose uptake relative to the vehicle | ~4 | showed an increase in glucose uptake | decrease in GLUT4-GFP around the cell nucleus and a parallel increase of movement at the membrane | rapid production of numerous projections (ruffling of filopodia) at the surface of the cell | increase in p44/42 MAPK |

— patent publication US20170367390A1, “USE OF ELLAGIC ACID DIHYDRATE IN FOOD PRODUCTS AND NUTRACEUTICALS” (HALO LIFE SCIENCE, LLC, priority 2014, published 2017)
